We go through 42 compounds from patent publication US20230218573A1, “INDOLE COMPOUNDS FOR THE TREATMENT OF NEURODEGENERATIVE DISEASES” (GALYAN BIO, INC., priority 2020, published 2023).

Like-named read-outs stand apart in the source and are kept apart here.

Data set [1] concerns the target mHTT (Mus musculus, UniProt P42859, DEL28-30/G47A/INS49LLPQPQPP/INS60VA/L56P/P40L). Nature of the data set: Diffuse mHTT levels in heat shocked STHdh 111/111 striatal cells by immunocytochemistry. Conditions: for remaining activity at 10 µM: 48 h.
Procedure: (§1) Pre-Treatment of striatal cell line - First the medium was removed and new DMEM (DMEM, high glucose, HEPES, no phenol red) medium, supplemented with 10% fetal bovine serum (FBS), 1% Penicillin-Streptomycin, containing 10 µM compound was added. The cells were incubated at 33° C. for 24 hours.
(§2) Heat shock - Cells were heat shocked for 3 hours at 41° C.
(§3) Treatment - Medium was removed and new DMEM (DMEM, high glucose, HEPES, no phenol red) medium, supplemented with 1% fetal bovine serum (FBS), 1% Penicillin-Streptomycin, containing 10 µM compound was added. The cells were incubated at 33° C. for 48 hours.
Staining - Cells were permeabilized with 0.3% Triton X-100 in 4° C. PBS (pH 7.4 from ThermoFisher) for 10 minutes. Then the cells were washed two times with 4° C. PBS. Subsequently, cells are blocked with 3% NGS (normal goat serum from Thermo Fisher) in 4° C. PBS for 1 hour. Cells were incubated with primary antibodies in blocking buffer (PBS, 3% NGS, 0.02% NaN3) over night at 4° C. Primary antibodies were mouse antipolyglutamine monoclonal antibody 3B5H10 (Sigma-Aldrich) at 1:250 dilution and Guinea Pig anti-MAP2 polyclonal antibody (Synaptic Systems) at 1:500 dilution. 3B5H10 binds to diffuse mHTT. Diffuse mHTT is a monomeric and small oligomeric mHTT.
Cells were washed 2 times with 4° C. PBS, and then incubated with secondary antibodies at 1:2000 dilution in blocking buffer for 1 hour at room temperature. […] Cells were washed 2 times with 4° C. PBS, and then the nuclei were counterstain with DAPI (ThermoFisher) for 10 min at room temperature in the dark. Cells were washed 2 times with 4° C. PBS, and then 4° C. PBS was added to cells and then images were acquired.
Fluorescence Imaging - Imaging sessions were performed on a confocal microscope system (Carl Zeiss Microscopy) equipped with a dual spinning disk unit (Yokogawa). All components of the imaging system were controlled via the ZEN 2 software suite (Carl Zeiss Microscopy). The laser lines used were 405 nm, 488 nm and 639 nm to excite DAPI or the respective fluorophores. […] Nested t test was performed to calculate the significance amongst repeated measurements using GraphPad Prism software.
ST HDH Q7/7 (CH00097, Coriell Institute) striatal derived cell line from a knock in transgenic mouse containing HTT loci with a humanized Exon 1 containing 7 polyglutamine repeats.
EC 50 value was determined with non-linear regression.
The subject of data set [2] is STHdh 111/111 striatal cells. Nature of the data set: Cell viability (CellTiter Glo) of heat shocked STHdh 111/111 striatal cells. The settings on record: STHdh 111/111, 10 µM, 48 hours treatment; for viability at 10 µM: Mus musculus, read-out: Cell Viability striatal cells 3h heat shocked. It counts as cell-based, mouse. (In general: Cellular ATP, detected with luciferase, serves as a proxy for viable cell number.)
Procedure: Cell culture - ST HDH Q111/111 (CH00095, Coriell Institute) striatal derived cell line were grown at 33° C. in DMEM (Sigma-Aldrich), supplemented with 10% fetal bovine serum (FBS), 1% Penicillin-Streptomycin (ThermoFisher Scientific), and 0.4 mg/ml G418 (Geneticin; Invitrogen). ST HDH Q111/111 are mouse striatal cells with polyQ length of 1111.
as §1, §2, §3
Cell Viability - Cell viability was measured according to manufacturer recommendations with CellTiter Glo (Promega). 96-well plates for used either for cell viability determination or cell staining.

For data set [3], the system named is STHdh 7/7 striatal cells. As to the kind of experiment: Cell viability of heat shocked STHdh 7/7 striatal cells. It counts as cell-based, mouse. Conditions: 48 hours treatment; for viability at 10 µM: Mus musculus, read-out: Cell Viability striatal cells 3h heat shocked; for Cell Viability striatal cells 3h heat shocked: 10 µM. On the procedure: RESULTS - Table 7b summarizes the effect of the compounds on cell viability. STHdh 7/7 were heat shocked for 3 hours and treated for 48 hours with small molecule compounds. Table 2 lists the cell viability in striatal cells after 48 hours.
Effect of Compound 22 on Cell Viability of Wildtype Striatal Neurons - STHdh 7/7 cells are striatal cells that express wildtype huntingtin. These cells were cultured in the same conditions as described above for STHdh 111/111. The neurons were first heat shocked for 3 hours at 41° C. as described above. After 48 hours of treatment with the small molecule Compounds, cell viability was determined using the method described above. The “buffer” control is represents cells treated with a buffer only, without any compounds added. Some of the compounds show higher cell viability in comparison to control heat shocked STHdh 7/7 neurons with buffer and no treatment (FIG. 9).

Where [4] appears, read: read-out: mHTT after treatment, 10 µM, 3 h heat shock, 48 hours treatment, in comparison to untreated STHdh 111/111.

mHTT, sequence (P42859 with tags, fused parts or gaps DEL28-30/P40L/G47A/INS49LLPQPQPP/L56P/INS60VA): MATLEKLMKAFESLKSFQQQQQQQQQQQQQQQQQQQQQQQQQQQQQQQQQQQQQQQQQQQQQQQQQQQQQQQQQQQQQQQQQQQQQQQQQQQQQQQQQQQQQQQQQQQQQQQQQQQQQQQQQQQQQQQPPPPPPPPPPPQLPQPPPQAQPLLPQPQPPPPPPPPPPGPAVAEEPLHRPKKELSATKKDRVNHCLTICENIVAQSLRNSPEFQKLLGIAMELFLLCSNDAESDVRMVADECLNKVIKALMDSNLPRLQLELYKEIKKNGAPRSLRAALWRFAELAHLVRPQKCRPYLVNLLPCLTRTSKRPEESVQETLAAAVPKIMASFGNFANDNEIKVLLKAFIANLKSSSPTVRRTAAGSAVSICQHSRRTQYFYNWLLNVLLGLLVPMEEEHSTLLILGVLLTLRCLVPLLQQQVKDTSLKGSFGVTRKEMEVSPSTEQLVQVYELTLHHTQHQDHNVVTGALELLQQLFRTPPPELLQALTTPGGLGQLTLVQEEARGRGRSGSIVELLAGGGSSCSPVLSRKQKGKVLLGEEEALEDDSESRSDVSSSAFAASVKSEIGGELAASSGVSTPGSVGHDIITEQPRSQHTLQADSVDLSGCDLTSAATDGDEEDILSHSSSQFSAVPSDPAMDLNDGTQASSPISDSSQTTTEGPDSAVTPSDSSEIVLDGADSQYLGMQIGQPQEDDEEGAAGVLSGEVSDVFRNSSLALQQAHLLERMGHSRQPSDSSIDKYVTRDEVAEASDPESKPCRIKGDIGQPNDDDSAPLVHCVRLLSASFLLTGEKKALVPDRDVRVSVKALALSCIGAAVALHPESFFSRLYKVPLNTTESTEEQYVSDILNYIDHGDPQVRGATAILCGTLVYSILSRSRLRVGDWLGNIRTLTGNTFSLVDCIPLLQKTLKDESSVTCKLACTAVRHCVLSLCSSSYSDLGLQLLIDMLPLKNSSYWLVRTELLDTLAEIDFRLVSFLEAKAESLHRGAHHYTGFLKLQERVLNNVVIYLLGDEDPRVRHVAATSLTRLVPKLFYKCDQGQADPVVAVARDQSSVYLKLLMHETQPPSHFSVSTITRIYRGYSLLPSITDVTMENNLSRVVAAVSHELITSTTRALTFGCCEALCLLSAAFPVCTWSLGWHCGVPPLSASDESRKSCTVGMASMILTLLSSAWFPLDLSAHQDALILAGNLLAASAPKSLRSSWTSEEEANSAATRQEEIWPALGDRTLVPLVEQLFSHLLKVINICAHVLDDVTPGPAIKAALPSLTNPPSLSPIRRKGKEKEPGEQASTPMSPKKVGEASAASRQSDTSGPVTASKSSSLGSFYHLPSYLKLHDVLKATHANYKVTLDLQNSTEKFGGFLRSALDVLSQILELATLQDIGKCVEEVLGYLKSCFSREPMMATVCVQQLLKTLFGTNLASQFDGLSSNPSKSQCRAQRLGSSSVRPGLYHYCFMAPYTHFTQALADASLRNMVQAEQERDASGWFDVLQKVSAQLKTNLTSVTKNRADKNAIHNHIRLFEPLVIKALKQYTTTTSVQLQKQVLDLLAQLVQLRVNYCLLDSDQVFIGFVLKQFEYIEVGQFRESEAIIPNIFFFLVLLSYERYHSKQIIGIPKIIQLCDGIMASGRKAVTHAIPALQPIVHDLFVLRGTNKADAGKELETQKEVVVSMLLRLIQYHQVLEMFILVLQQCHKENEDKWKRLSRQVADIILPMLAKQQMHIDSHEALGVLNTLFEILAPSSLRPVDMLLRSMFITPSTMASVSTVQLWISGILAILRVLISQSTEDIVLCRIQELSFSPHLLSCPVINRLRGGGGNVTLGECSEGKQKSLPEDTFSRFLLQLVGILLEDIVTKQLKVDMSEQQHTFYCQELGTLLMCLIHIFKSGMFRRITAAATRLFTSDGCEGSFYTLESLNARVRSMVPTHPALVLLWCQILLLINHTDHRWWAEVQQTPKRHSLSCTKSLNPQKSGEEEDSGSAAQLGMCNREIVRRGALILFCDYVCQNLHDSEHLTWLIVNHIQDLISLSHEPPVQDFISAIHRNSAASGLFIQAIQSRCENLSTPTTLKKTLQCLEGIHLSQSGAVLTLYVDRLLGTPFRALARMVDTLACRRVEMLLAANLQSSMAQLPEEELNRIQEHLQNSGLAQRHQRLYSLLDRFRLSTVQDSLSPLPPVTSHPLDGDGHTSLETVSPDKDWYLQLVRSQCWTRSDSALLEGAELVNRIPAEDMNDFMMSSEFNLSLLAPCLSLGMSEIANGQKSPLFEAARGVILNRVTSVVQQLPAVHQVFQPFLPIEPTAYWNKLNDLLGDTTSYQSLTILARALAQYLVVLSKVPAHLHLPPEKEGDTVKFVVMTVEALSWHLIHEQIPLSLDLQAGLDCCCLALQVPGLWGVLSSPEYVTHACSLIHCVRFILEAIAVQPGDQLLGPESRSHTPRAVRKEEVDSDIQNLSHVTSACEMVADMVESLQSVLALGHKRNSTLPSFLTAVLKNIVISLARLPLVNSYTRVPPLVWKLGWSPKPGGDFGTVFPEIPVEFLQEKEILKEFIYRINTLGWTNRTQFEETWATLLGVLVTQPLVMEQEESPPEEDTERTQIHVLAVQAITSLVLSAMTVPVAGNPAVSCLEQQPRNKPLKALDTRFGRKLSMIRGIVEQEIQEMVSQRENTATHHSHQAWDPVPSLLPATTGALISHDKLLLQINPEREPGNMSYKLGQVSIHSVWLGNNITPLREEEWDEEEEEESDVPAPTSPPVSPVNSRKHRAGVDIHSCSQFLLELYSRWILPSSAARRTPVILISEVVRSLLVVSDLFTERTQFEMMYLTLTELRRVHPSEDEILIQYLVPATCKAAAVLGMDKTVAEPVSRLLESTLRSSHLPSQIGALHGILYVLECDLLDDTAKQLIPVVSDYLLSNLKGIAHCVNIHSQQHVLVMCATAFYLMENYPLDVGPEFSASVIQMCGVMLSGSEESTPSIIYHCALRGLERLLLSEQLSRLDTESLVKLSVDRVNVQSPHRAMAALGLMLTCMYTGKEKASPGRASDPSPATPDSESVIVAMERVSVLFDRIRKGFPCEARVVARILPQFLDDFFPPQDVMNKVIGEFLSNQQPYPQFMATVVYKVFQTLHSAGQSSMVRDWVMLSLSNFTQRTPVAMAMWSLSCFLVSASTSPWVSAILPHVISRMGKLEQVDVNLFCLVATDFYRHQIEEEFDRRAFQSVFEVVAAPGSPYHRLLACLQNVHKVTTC

As to `Cc1c(C)n(C)c2ccc(C(=O)NCCN(C(C)C)C(C)C)cc12.Cl` [Compound 39], in data set [1] (setting [4]), the remaining activity at 10 µM was 58%. Further, the “Cell Viability striatal cells 3h heat shocked” value in data set [2] came out at 117. As for `CCc1[nH]c2ccc(C(=O)NCCN3CCC3)cc2c1C` [Compound 6], in data set [1] (read-out: mHTT after treatment), the remaining activity at 10 µM worked out at 37%. Also, the viability at 10 µM in data set [2] came to 113%. For the compound `CCc1c(C)[nH]c2ccc(C(=O)NCCN3CCN(C)CC3)cc12` [Compound 15], in data set [2], the viability at 10 µM turned out to be 104%. For `O=C(NCCN1CCC1)c1ccc2[nH]c3c(c2c1)CCC3` [Compound 42], the viability at 10 µM in data set [2] was found to be 88%. Consider `O=C(NCCN1CCOCC1)c1ccc2[nH]c3c(c2c1)CCCC3` [Compound 12], for which the remaining activity at 10 µM in data set [1] (read-out: mHTT after treatment) was 40%. For the same compound, in data set [2], the viability at 10 µM is 106%. In the case of `CCc1[nH]c2ccc(C(=O)NCCN3CCCC3)cc2c1C` [Compound 11], the remaining activity at 10 µM in data set [1] (read-out: mHTT after treatment) is 40%. The viability at 10 µM in data set [2] stood at 114%. As for `CCc1c(C)[nH]c2ccc(C(=O)NCCN3CCOCC3)cc12` [Compound 32], the viability at 10 µM in data set [2] was 98%. Compound `Cc1c(C)n(C)c2ccc(C(=O)NCCN3CCOCC3)cc12` [Compound 40] had a mHTT after treatment in data set [1] (10 µM, 3 h heat shock, 48 hours treatment, in comparison to untreated STHdh 111/111) of 62%. Also, the viability at 10 µM in data set [2] turned out to be 85%. For the compound `O=C(NCCN1CCCC1)c1ccc2[nH]c3c(c2c1)CCC3` [Compound 14], the remaining activity at 10 µM in data set [1] (read-out: mHTT after treatment) came to 41%. The viability at 10 µM in data set [2] amounted to 113%. On to `Cc1[nH]c2ccc(C(=O)NCCN3CCCCC3)cc2c1C` [Compound 47, 2,3-Dimethyl-N-(2-(piperidin-1-yl)ethyl)-1H-indole-5-carboxamide], for which the viability at 10 µM in data set [2] turned out to be 66%. Consider `CCc1[nH]c2ccc(C(=O)NCCN(C)C)cc2c1C` [Compound 37], for which the viability at 10 µM in data set [2] was found to be 78%.

`Cc1c(C)n(C)c2ccc(C(=O)NCCN(C)C)cc12` [Compound 41, N-(2-(Dimethylamino)ethyl)-1,2,3-trimethyl-1H-indole-5-carboxamide]: the viability at 10 µM in data set [2] is 75%. As for `CCN(CC)CCNC(=O)c1ccc2[nH]c3c(c2c1)CCCC3` [Compound 26], in data set [1] (read-out: mHTT after treatment), the remaining activity at 10 µM turned out to be 49%. Further, the viability at 10 µM in data set [2] came out at 82%. As to `Cc1c(C)n(C)c2ccc(C(=O)NCCN3CCCCC3C)cc12` (stereo not shown) [Compound 48], the viability at 10 µM in data set [2] was 108%.

In the case of `CCN(CC)CCNC(=O)c1ccc2c(c1)c(C)c(C)n2C` [Compound 19, N-(2-(Diethylamino)ethyl)-1,2,3-dimethyl-1H-indole-5-carboxamide], in data set [1] (setting [4]), the remaining activity at 10 µM was determined as 45%. In data set [2], the viability at 10 µM was 76%. `Cc1c(C)n(C)c2ccc(C(=O)NCCN3CCN(C)CC3)cc12` [Compound 45]: in data set [1] (setting [4]), the remaining activity at 10 µM was found to be 66%. Further, the viability at 10 µM in data set [2] amounted to 81%. Regarding `CN1CCN(CCNC(=O)c2ccc3[nH]c4c(c3c2)CCCC4)CC1` [Compound 36], in data set [2], the viability at 10 µM was 84%. As for `CN1CCN(CCNC(=O)c2ccc3[nH]c4c(c3c2)CCC4)CC1` [Compound 10], the remaining activity at 10 µM in data set [1] (read-out: mHTT after treatment) is 40%. The viability at 10 µM in data set [2] is 96%. For `CN(C)CCNC(=O)c1ccc2[nH]c3c(c2c1)CCC3` [Compound 5], the viability at 10 µM in data set [2] was found to be 104%. `O=C(NCCN1CCCC1)c1ccc2[nH]c3c(c2c1)CCCC3` [Compound 13]: the viability at 10 µM in data set [2] is 117%. For the compound `O=C(NCCN1CCOCC1)c1ccc2[nH]c3c(c2c1)CCC3` [Compound 8], in data set [2], the viability at 10 µM came out at 115%.

As to `Cc1[nH]c2ccc(C(=O)NCCN3CCCC3)cc2c1C` [Compound 29, 2,3-Dimethyl-N-(2-(pyrrolidin-1-yl)ethyl)-1H-indole-5-carboxamide], the viability at 10 µM is 103% in data set [2] and 131% in data set [3]. On to `CCc1[nH]c2ccc(C(=O)NCCN3CCOCC3)cc2c1C` [Compound 30], for which, in data set [2], the viability at 10 µM amounted to 55%. `Cc1c(C)n(C)c2ccc(C(=O)NCCN(C(C)C)C(C)C)cc12.Cl` [Compound 59]: the “Cell Viability striatal cells 3h heat shocked” value in data set [3] was 153.6. `Cc1c(C)n(C)c2ccc(C(=O)NCCN3CCCCC3)cc12` [Compound 31, 1,2,3-Trimethyl-N-(2-(piperidin-1-yl)ethyl)-1H-indole-5-carboxamide]: the viability at 10 µM in data set [2] was 116%.

Turning to `CC(C)N(CCNC(=O)c1ccc2[nH]ccc2c1)C(C)C` [Compound 72], the viability at 10 µM in data set [3] came to 45.7%. Consider `Cc1[nH]c2ccc(C(=O)NCCN3CCC3)cc2c1C` [Compound 17, N-(2-(Azetidin-1-yl)ethyl)-2,3-dimethyl-1H-indole-5-carboxamide], for which the viability at 10 µM in data set [2] was found to be 99%. As to `CCN(CC)CCNC(=O)c1ccc2[nH]c(C)c(C)c2c1` [Compound 21, N-(2-(Diethylamino)ethyl)-2,3-dimethyl-1H-indole-5-carboxamide], the viability at 10 µM in data set [2] was determined as 87%; in data set [3], 82.6%. `CCc1[nH]c2ccc(C(=O)NCCN(CC)CC)cc2c1C` [Compound 38]: the viability at 10 µM in data set [2] was determined as 81%. On to `CC(C)N(CCNC(=O)c1ccc2[nH]ccc2c1)C(C)C` [Compound 43], for which, in data set [2], the viability at 10 µM was determined as 32%.

Consider `O=C(NCCN1CCCCC1)c1ccc2[nH]c3c(c2c1)CCCC3` [Compound 16], for which the viability at 10 µM in data set [2] came out at 117%. In the case of `CN(C)CCNC(=O)c1ccc2[nH]c3c(c2c1)CCCC3` [Compound 3], the viability at 10 µM in data set [2] worked out at 86%.

Consider `Cc1c(C)n(C)c2ccc(C(=O)NCCN3CCN(C)C(C)C3)cc12` (stereo not shown) [Compound 25, N-(2-(3,4-Dimethylpiperazin-1-yl)ethyl)-1,2,3-trimethyl-1H-indole-5-carboxamide], for which the viability at 10 µM in data set [2] amounted to 109%. For `Cc1c(C)n(C)c2ccc(C(=O)NCCN3CCC3)cc12` [Compound 44, N-(2-(Azetidin-1-yl)ethyl)-1,2,3-dimethyl-1H-indole-5-carboxamide], in data set [1] (setting [4]), the remaining activity at 10 µM was 66%. In data set [2], the viability at 10 µM turned out to be 75%. `Cc1c(C)n(C)c2ccc(C(=O)NCCN(C(C)C)C(C)C)cc12` [Compound 56]: the remaining activity at 10 µM in data set [1] (read-out: mHTT after treatment) is 109%. In addition, the “Cell Viability striatal cells 3h heat shocked” value in data set [2] is on record as 27; in data set [3] it was 64.1. With `CCc1[nH]c2ccc(C(=O)NCCN3CCCCC3)cc2c1C` [Compound 23], the viability at 10 µM in data set [2] was 84%.

`CCN(CC)CCNC(=O)c1ccc2[nH]c3c(c2c1)CCC3` [Compound 27]: the remaining activity at 10 µM in data set [1] (read-out: mHTT after treatment) amounted to 50%. In data set [2], the viability at 10 µM was 66%. The like results for `CCc1c(C)[nH]c2ccc(C(=O)NCCN(C)C)cc12` [Compound 1] were, in that order, 30% and 111%.

In the case of `Cc1c(C)n(C)c2ccc(C(=O)NCCN3CCCC3)cc12` [Compound 46, 1,2,3-Trimethyl-N-(2-(pyrrolidin-1-yl)ethyl)-1Hindole-5-carboxamide], in data set [2], the viability at 10 µM worked out at 96%. Consider `CCN(CC)CCNC(=O)c1ccc2[nH]ccc2c1` [Compound 52], for which the remaining activity at 10 µM in data set [1] (read-out: mHTT after treatment) turned out to be 73%. For the same compound, the viability at 10 µM in data set [2] worked out at 59%. Turning to `CCc1c(C)[nH]c2ccc(C(=O)NCCN3CCCCC3)cc12` [Compound 18], in data set [1] (read-out: mHTT after treatment), the remaining activity at 10 µM is 44%. The viability at 10 µM in data set [2] worked out at 103%. `CCc1c(C)[nH]c2ccc(C(=O)NCCN3CCC3)cc12` [Compound 33]: the viability at 10 µM in data set [2] turned out to be 79%.

The term viability denotes a read-out of living cells in per cent, often relative to untreated cells.
